Measured values reported in patent US11186576B2, “Pyrazolo[1,5-A][1,3,5]triazine and pyrazolo[1,5-A]pyrimidine derivatives as CDK inhibitors” (Aurigene Discovery Technologies Limited, priority 2015, dated 2021).
Read-outs that look alike come from different tables or passages of the source.

Target: CDK7/CycH/MNAT1 (Homo sapiens (Human), UniProt P50613)
Experiment: Biochemical assay for CDK7 (TR-FRET kinase assay)
Conditions: for inhibition at 10 µM: read-out: % inhibition @ 10 μM
Method: The ability of compounds to inhibit CDK7 kinase activity was tested in a TR-FRET assay using 5 nM of CDK7/CycH/MNAT1 obtained from Invitrogen, USA. Test compounds were pre-incubated with the kinase at room temperature for 60 min. After incubation, substrate mix [100 nM Ultra-light MBP (Perkin Elmer, USA) and 1 mM ATP (Sigma)] was added. The above reaction was stopped by the addition of 40 mM EDTA after 60 minutes of kinase reaction. 1 nM Eu-labelled antiphospho-MBP antibody [Perkin Elmer, USA] was added, mixed well and the fluorescence emission at 615 nm and 665 nm [excitation at 340 nm] was measured. The final DMSO concentration in the assay was 1%. For IC50 determination, appropriate concentrations were made by ⅓^rd serial dilutions of 10 mM DMSO stock solution of test compound. All the fluorescence measurements were made in a Victor 3 Multilabel Counter [Perkin Elmer, USA]. The IC50 was determined by fitting the dose response data to sigmoidal curve fitting equation using GraphPad Prism software V5. To identify compounds that inhibit CDK7 irreversibly, time depended inhibition studies were carried by pre-incubating compound with the enzyme at three time points (20, 60 and 180 min) and carrying out assay as described above.

[1] = 10 μM compound, 60 min pre-incubation, 1 mM ATP
[2] = 60 min pre-incubation, 1 mM ATP, read-out: IC50

Chain of CDK7/CycH/MNAT1 (P50613 whole entry): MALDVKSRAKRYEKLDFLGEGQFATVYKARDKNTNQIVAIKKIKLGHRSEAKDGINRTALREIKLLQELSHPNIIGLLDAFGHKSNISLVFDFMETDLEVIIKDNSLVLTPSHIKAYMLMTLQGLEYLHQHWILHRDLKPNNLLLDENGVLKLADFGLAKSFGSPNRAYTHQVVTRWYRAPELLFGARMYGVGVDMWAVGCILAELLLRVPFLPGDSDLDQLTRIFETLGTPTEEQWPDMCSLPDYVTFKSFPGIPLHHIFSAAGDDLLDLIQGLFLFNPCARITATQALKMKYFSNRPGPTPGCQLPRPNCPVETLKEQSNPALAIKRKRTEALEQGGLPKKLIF
Chain of CDK7/CycH/MNAT1 (P51946 whole entry partner): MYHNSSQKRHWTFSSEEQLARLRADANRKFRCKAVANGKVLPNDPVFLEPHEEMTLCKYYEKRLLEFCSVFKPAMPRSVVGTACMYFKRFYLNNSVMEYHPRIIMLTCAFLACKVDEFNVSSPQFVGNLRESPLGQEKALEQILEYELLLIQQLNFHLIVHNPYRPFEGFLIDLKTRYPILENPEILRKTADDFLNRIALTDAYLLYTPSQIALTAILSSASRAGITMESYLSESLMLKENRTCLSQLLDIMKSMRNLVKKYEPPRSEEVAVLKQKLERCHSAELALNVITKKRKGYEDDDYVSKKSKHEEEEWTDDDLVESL
Chain of CDK7/CycH/MNAT1 (P51948 whole entry partner): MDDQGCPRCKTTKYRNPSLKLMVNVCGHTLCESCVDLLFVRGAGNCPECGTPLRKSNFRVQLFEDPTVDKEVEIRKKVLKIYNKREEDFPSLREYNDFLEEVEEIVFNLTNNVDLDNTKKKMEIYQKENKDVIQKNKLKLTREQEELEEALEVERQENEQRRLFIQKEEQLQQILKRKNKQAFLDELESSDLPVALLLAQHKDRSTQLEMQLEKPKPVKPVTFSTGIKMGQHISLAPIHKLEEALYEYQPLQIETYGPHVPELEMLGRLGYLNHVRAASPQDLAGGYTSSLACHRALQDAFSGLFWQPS

SMILES | inhibition at 10 µM [1] [%] | IC50 [2] [nM] | IC50 (IC50, 60 min pre-incubation, 1 mM ATP) [nM] | inhibition at 10 µM [%]
CC(C)c1cnn2c(NCc3cccc(NC(=O)/C=C/CN4CCC(F)C4)c3)nc(NC3CCOCC3)nc12 (stereo not drawn) [Compound 56, (E)-4-(3-fluoropyrrolidin-1-yl)-N-(3-(((8-isopropyl-2-((tetrahydro-2H-pyran-4-yl)amino)pyrazolo[1,5-a][1,3,5]triazin-4-yl)amino)methyl)phenyl)but-2-enamide] | 97 | < 300 |  | 
CC(C)c1cnn2c(NCc3cccc(NC(=O)/C=C/CN4CCC(F)(F)C4)c3)nc(NC3CCOCC3)nc12 [Compound 57, (E)-4-(3,3-difluoropyrrolidin-1-yl)-N-(3-(((8-isopropyl-2-((tetrahydro-2H-pyran-4-yl)amino)pyrazolo[1,5-a][1,3,5]triazin-4-yl)amino)methyl)phenyl)but-2-enamide] | 84 | > 1000 |  | 
CC(C)c1cnn2c(NCc3cccc(NC(=O)/C=C/CN4CCCC(F)C4)c3)nc(NC3CCOCC3)nc12 (stereo not drawn) [Compound 58, (E)-4-(3-fluoropiperidin-1-yl)-N-(3-(((8-isopropyl-2-((tetrahydro-2H-pyran-4-yl)amino)pyrazolo[1,5-a][1,3,5]triazin-4-yl)amino)methyl)phenyl)but-2-enamide] | 96 | 300 to 1000 |  | 
CC(C)c1cnn2c(NCc3cc(F)cc(NC(=O)/C=C/CN(C)C)c3)nc(NC3CCOCC3)nc12 [Compound 59, (E)-4-(dimethylamino)-N-(3-fluoro-5-(((8-isopropyl-2-((tetrahydro-2H-pyran-4-yl)amino)pyrazolo[1,5-a][1,3,5]triazin-4-yl)amino)methyl)phenyl)but-2-enamide] | 98 | < 300 |  | 
CC(C)c1cnn2c(NCc3cccc(NC(=O)/C=C/CN(C)C)c3F)nc(NC3CCOCC3)nc12 [Compound 60, (E)-4-(dimethylamino)-N-(2-fluoro-3-(((8-isopropyl-2-((tetrahydro-2H-pyran-4-yl)amino)pyrazolo[1,5-a][1,3,5]triazin-4-yl)amino)methyl)phenyl)but-2-enamide] | 98 | < 300 |  | 
CC(C)c1cnn2c(NCc3cc(F)cc(NC(=O)/C=C/CN4CCOCC4)c3)nc(NC3CCOCC3)nc12 [Compound 61, (E)-N-(3-fluoro-5-(((8-isopropyl-2-((tetrahydro-2H-pyran-4-yl)amino)pyrazolo[1,5-a][1,3,5]triazin-4-yl)amino)methyl)phenyl)-4-morpholinobut-2-enamide] | 76 | > 1000 |  | 
CC(C)c1cnn2c(NCc3ccccc3NC(=O)/C=C/CN(C)C)nc(NC3CCOCC3)nc12 [Compound 62, (E)-4-(dimethylamino)-N-(2-(((8-isopropyl-2-((tetrahydro-2H-pyran-4-yl)amino)pyrazolo[1,5-a][1,3,5]triazin-4-yl)amino)methyl)phenyl)but-2-enamide] | 97 | < 300 |  | 
CC(C)c1cnn2c(NCc3ccc(NC(=O)/C=C/CN4CCCC4)cc3)nc(NC3CCOCC3)nc12 [Compound 63, (E)-N-(4-(((8-isopropyl-2-((tetrahydro-2H-pyran-4-yl)amino)pyrazolo[1,5-a][1,3,5]triazin-4-yl)amino)methyl)phenyl)-4-(pyrrolidin-1-yl)but-2-enamide] | 94 | 300 to 1000 |  | 
CC(C)c1cnn2c(NCc3ccc(F)c(NC(=O)C4CCN(C(=O)/C=C/CN(C)C)C4)c3)nc(NC3CCOCC3)nc12 (stereo not drawn) [Compound 64, (E)-1-(4-(dimethylamino)but-2-enoyl)-N-(2-fluoro-5-(((8-isopropyl-2-((tetrahydro-2H-pyran-4-yl)amino)pyrazolo[1,5-a][1,3,5]triazin-4-yl)amino)methyl)phenyl) pyrrolidine-3-carboxamide] | 91 | 300 to 1000 |  | 
C/C=C/C(=O)N1CCC1C(=O)Nc1cccc(CNc2nc(NC3CCOCC3)nc3c(C(C)C)cnn23)c1 (stereo not drawn) [Compound 65, (E)-1-(but-2-enoyl)-N-(3-(((8-isopropyl-2-((tetrahydro-2H-pyran-4-yl)amino)pyrazolo[1,5-a][1,3,5]triazin-4-yl)amino)methyl)phenyl)azetidine-2-carboxamide] | 86 | > 1000 |  | 
C#CC(=O)N1CCC1C(=O)Nc1cccc(CNc2nc(NC3CCOCC3)nc3c(C(C)C)cnn23)c1 (stereo not drawn) [Compound 66, N-(3-(((8-isopropyl-2-((tetrahydro-2H-pyran-4-yl)amino)pyrazolo[1,5-a][1,3,5]triazin-4-yl)amino)methyl)phenyl)-1-propioloylazetidine-2-carboxamide] | 98 | < 300 |  | 
C=C(C)C(=O)N1CCC1C(=O)Nc1cccc(CNc2nc(NC3CCOCC3)nc3c(C(C)C)cnn23)c1 (stereo not drawn) [Compound 67, N-(3-(((8-isopropyl-2-((tetrahydro-2H-pyran-4-yl)amino)pyrazolo[1,5-a][1,3,5]triazin-4-yl)amino)methyl)phenyl)-1-methacryloylazetidine-2-carboxamide] | 91 | 300 to 1000 |  | 
CC(C)c1cnn2c(NCc3cccc(OC(=O)N4CCN(C(=O)/C=C/CN(C)C)CC4)c3)nc(NC3CCOCC3)nc12 [Compound 75, 3-(((8-isopropyl-2-((tetrahydro-2H-pyran-4-yl)amino)pyrazolo[1,5-a][1,3,5]triazin-4-yl)amino)methyl)phenyl(E)-4-(4-(dimethylamino)but-2-enoyl)piperazine-1-carboxylate] |  |  | < 300 | 97

Further lines, with some results ahead:

inhibition at 10 µM [1] [%] | IC50 [2] [nM] | SMILES | IC50 (IC50, 60 min pre-incubation, 1 mM ATP) [nM] | inhibition at 10 µM [%]
92 | 300 to 1000 | COC/C=C/C(=O)N1CCC(C(=O)Nc2cccc(CNc3nc(NC4CCOCC4)nc4c(C(C)C)cnn34)c2)C1 (stereo not drawn) [Compound 68, (E)-N-(3-(((8-isopropyl-2-((tetrahydro-2H-pyran-4-yl)amino)pyrazolo[1,5-a][1,3,5]triazin-4-yl)amino)methyl)phenyl)-1-(4-methoxybut-2-enoyl)pyrrolidine-3-carboxamide] |  | 
85 | 300 to 1000 | CC(C)c1cnn2c(NCc3cc(NC(=O)C4CCN(C(=O)/C=C/CN(C)C)C4)ccc3F)nc(NC3CCOCC3)nc12 (stereo not drawn) [Compound 70, (E)-1-(4-(dimethylamino)but-2-enoyl)-N-(4-fluoro-3-(((8-isopropyl-2-((tetrahydro-2H-pyran-4-yl)amino)pyrazolo[1,5-a][1,3,5]triazin-4-yl)amino)methyl)phenyl)pyrrolidine-3-carboxamide] |  | 
92 | 300 to 1000 | CC(C)c1cnn2c(NCc3cc(F)cc(NC(=O)C4CCN(C(=O)/C=C/CN(C)C)C4)c3)nc(NC3CCOCC3)nc12 (stereo not drawn) [Compound 71, (E)-1-(4-(dimethylamino)but-2-enoyl)-N-(3-fluoro-5-(((8-isopropyl-2-((tetrahydro-2H-pyran-4-yl)amino)pyrazolo[1,5-a][1,3,5]triazin-4-yl)amino)methyl)phenyl)pyrrolidine-3-carboxamide] |  | 
84 | 300 to 1000 | CC(C)c1cnn2c(NC(C)c3cccc(NC(=O)C4CCCN(C(=O)/C=C/CN(C)C)C4)c3)nc(NC3CCOCC3)nc12 (stereo not drawn) [Compound 72, (E)-1-(4-(dimethylamino)but-2-enoyl)-N-(3-(1-((8-isopropyl-2-((tetrahydro-2H-pyran-4-yl)amino)pyrazolo[1,5-a][1,3,5]triazin-4-yl)amino)ethyl)phenyl)piperidine-3-carboxamide] |  | 
101 | < 300 | CC(C)c1cnn2c(NCc3cccc(NC(=O)C4COCCN4C(=O)/C=C/CN(C)C)c3)nc(NC3CCOCC3)nc12 (stereo not drawn) [Compound 73, (E)-4-(4-(dimethylamino)but-2-enoyl)-N-(3-(((8-isopropyl-2-((tetrahydro-2H-pyran-4-yl)amino)pyrazolo[1,5-a][1,3,5]triazin-4-yl)amino)methyl)phenyl)morpholine-3-carboxamide] |  | 
99 | < 300 | CC(C)c1cnn2c(NCc3cccc(NC(=O)C4CCCCN4C(=O)/C=C/CN(C)C)c3)nc(NC3CCOCC3)nc12 (stereo not drawn) [Compound 74, (E)-1-(4-(dimethylamino)but-2-enoyl)-N-(3-(((8-isopropyl-2-((tetrahydro-2H-pyran-4-yl)amino)pyrazolo[1,5-a][1,3,5]triazin-4-yl)amino)methyl)phenyl)piperidine-2-carboxamide] |  | 
81 | > 1000 | CC(C)c1cnn2c(NCc3cccc(NC(=O)C4CCN4C/C=C/C(=O)N(C)C)c3)nc(NC3CCOCC3)nc12 (stereo not drawn) [Compound 76, (E)-1-(4-(dimethylamino)-4-oxobut-2-en-1-yl)-N-(3-(((8-isopropyl-2-((tetrahydro-2H-pyran-4-yl)amino)pyrazolo[1,5-a][1,3,5]triazin-4-yl)amino)methyl)phenyl)azetidine-2-carboxamide] |  | 
99 | < 300 | CC(C)c1cnn2c(NCc3cccc(NC(=O)C4CCCCN4C(=O)/C=C/CN4CCCC4)c3)nc(NC3CCOCC3)nc12 (stereo not drawn) [Compound 77, (E)-N-(3-(((8-isopropyl-2-((tetrahydro-2H-pyran-4-yl)amino)pyrazolo[1,5-a][1,3,5]triazin-4-yl)amino)methyl)phenyl)-1-(4-(pyrrolidin-1-yl)but-2-enoyl)piperidine-2-carboxamide] |  | 
